{
  "source": "patent US20260315434A1",
  "about": "“USE OF GUAIACOL SESQUITERPENE LACTONE DERIVATIVES” (NANJING UNIVERSITY OF CHINESE MEDICINE, priority 2023, published 2026)",
  "key": {"T cells": {"system": "T cells", "assay": "Proportion of T cells in tumor and spleen of H22 xenograft mice (flow cytometry)", "assay_type": "in vivo, BALB/c mice", "protocol": "Once all tumors were dissected, nail-sized tumor pieces were transferred to 1.5 mL Eppendorf tubes and minced with scissors. Transfer the minced tumor tissue suspension to a 15 mL centrifuge tube containing 3-5 mL of digestive enzymes (Collagenase IV 1 mg/mL, Hyaluronidase 1 mg/mL, DNase 120 U/mL). Incubate at 37° C. on a shaking incubator at 200 rpm for 1 hour. After digestion, pass the mixture through a 200-mesh sieve to obtain the tumor cell suspension. Centrifuge the resulting tumor suspension at 1600 rpm for 5 min, aspirate the supernatant, resuspend cells in 1 mL of 1×PBS per tube. Transfer the cell suspension to a 1.5 mL Eppendorf tube, centrifuge at 1600 rpm for 5 min, remove the supernatant, resuspend cells in 100 μL of 1×PBS per tube, add 1 μL of dead/live dye to each tube, mix thoroughly, and incubate at room temperature in the dark for 15 min. […] Position the spleen on a 200-mesh cell strainer. Gently press the spleen using a 10 mL syringe needle. […] Transfer the splenocyte suspension into a 15 mL centrifuge tube. Centrifuge at 1600 rpm for 5 min to collect cells. Wash once with 1×PBS. Add 3 mL red blood cell lysis buffer (diluted with ddH2O) to each tube and incubate for 5 min. After lysis, add 10 mL 1×PBS to each tube to terminate lysis. Centrifuge at 1600 rpm for 5 min. Add 1 mL 1×PBS to each 15 mL centrifuge tube, transfer to 1.5 mL EP tubes, and centrifuge at 1600 rpm for 5 min. Add 1×PBS to each tube containing stained tumor cells and lysed spleen cells for one wash, centrifuge at 1600 rpm for 5 min, and remove the supernatant. Resuspend tumor cells and spleen cells separately in 100 μL 1×PBS. Add 1 μL FcX™ antibody to each tube and incubate at room temperature in the dark for 10 min. After incubation, sequentially add 1 μL each of CD45, CD3, and CD8 antibodies to each tube. Incubate at 4° C. in the dark for 30 min. After staining, wash once with 1 mL PBS. Centrifuge at 1600 rpm for 5 min. Discard the supernatant. Resuspend cells in 300 μL 1×PBS. Filter the cell suspension into a flow cytometry tube and proceed to instrument analysis."}, "CT26 cells": {"system": "CT26 cells", "assay": "Antitumor effect in CT26 colon cancer mouse subcutaneous model", "assay_type": "in vivo, BALB/c mice", "settings": "mouse, in vivo, po"}, "[1]": {"assay": "Conversion (release) of prodrug salts to parent compound in HEPES buffer pH 7.4", "assay_type": "in vitro ADME", "settings": "for Release rate (conversion to Compound 1): HEPES pH 7.4, 37 °C", "how_it_was_run": "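Salt dissolved in water, mixed 1:1 with HEPES solution pH 7.4 (NaCl, KCl, Na2HPO4, glucose) and held at 37° C. At 1, 2, 4, 8 and 12 h, samples were methanol-quenched, centrifuged and analysed by reversed-phase HPLC at 210 nm, with peak areas recorded for conversion to parent compound.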"}, "[2]": {"system": "renal injury markers (Ngal, Havcr1) in kidney tissue", "assay": "Folic acid-induced acute kidney injury, renal injury marker mRNA", "assay_type": "in vivo, C57BL/6 mice", "design": "scale not given here", "settings": "folic acid acute model", "protocol": "(§1) Except for the normal group, all other mice were administered folic acid (250 mg/kg) dissolved in 0.9% NaHCO3 solution via intraperitoneal injection to establish an acute kidney injury model.\n(§2) The blood was allowed to stand at room temperature for 2 hours, then centrifuged at 3000 rpm for 20 minutes. Serum was aspirated, aliquoted, and stored at −70° C. for future use. Following blood collection, euthanize mice by cervical dislocation. Perform laparotomy to remove kidneys, dissect out perirenal fat and capsules. […] Paraffin-embedded specimens undergo HE staining; remaining tissue is stored at −70° C. for future use."}, "[3]": {"system": "inflammatory cytokines (TNF, IL-6, IL-1) in renal tissue", "assay": "Folic acid-induced acute kidney injury, renal inflammatory factor mRNA", "assay_type": "in vivo, C57BL/6 mice", "settings": "folic acid acute model", "protocol": "as §1, §2"}, "[4]": {"system": "renal injury markers (Ngal, Havcr1) in kidney tissue", "assay": "Unilateral ureteral ligation (UUO) chronic kidney injury, renal injury marker mRNA", "assay_type": "in vivo, C57BL/6 mice", "design": "unit not given here", "settings": "UUO chronic model", "from_the_text": "(§3) Chronic Kidney Injury: Mice were randomly divided into five groups. […] Except for the sham-operated mice in the normal group (where only the left ureter was exposed without further manipulation), all other mice underwent unilateral ureteral ligation to establish a chronic kidney injury model as follows: The abdominal skin was disinfected with iodine solution followed by alcohol. An incision was made, and the abdominal layers were dissected sequentially. The left ureter was fully exposed and dissected. A double ligation was performed at the bladder-proximal end of the left ureter using absorbable suture material, followed by closure.\nas §2"}, "[5]": {"system": "inflammatory cytokines (TNF, IL-6, IL-1) in renal tissue", "assay": "UUO chronic kidney injury, renal inflammatory factor mRNA", "assay_type": "in vivo, C57BL/6 mice", "design": "unit not given here", "settings": "UUO chronic model", "from_the_text": "as §3, §2"}, "[6]": {"system": "fibrosis-related factors (α-Sma, Col1a1, Tgfb1) in kidney tissue", "assay": "UUO chronic kidney injury, renal fibrosis-related factor mRNA", "assay_type": "in vivo, C57BL/6 mice", "design": "unit not given here", "settings": "UUO chronic model", "from_the_text": "as §3, §2"}},
  "data": [
    {"smiles": "C=C1C(=O)O[C@@H]2[C@H]3C(C)=CC[C@@]34O[C@@]4(C)CC[C@@H]12", "note": "[Arg, Arglabin, reference compound]", "values": [
      {"measurement": "proportion of T cells in tumor tissues and spleens", "setting": "T cells; mouse, in vivo", "value": "significantly increased"},
      {"measurement": "tumor-inhibiting effect, CT26", "setting": "CT26 cells", "value": "tumor-inhibiting effects"}
    ]},
    {"smiles": "CN(C)C[C@@H]1C(=O)O[C@H]2[C@H]1CC[C@@]1(C)C[C@]13CC[C@@](C)(O)[C@H]23", "note": "[Compound 21]", "values": [
      {"measurement": "Release rate (conversion to Compound 1)", "setting": "[1]; 1 h, 60 min", "value": 3.3, "unit": "%"},
      {"measurement": "Release rate (conversion to Compound 1)", "setting": "[1]; 2 h, 120 min", "value": 10.2, "unit": "%"},
      {"measurement": "Release rate (conversion to Compound 1)", "setting": "[1]; 4 h, 240 min", "value": 18.1, "unit": "%"},
      {"measurement": "Release rate (conversion to Compound 1)", "setting": "[1]; 8 h, 480 min", "value": 38.9, "unit": "%"},
      {"measurement": "Release rate (conversion to Compound 1)", "setting": "[1]; 12 h, 720 min", "value": 51.9, "unit": "%"},
      {"measurement": "Havcr1 mRNA expression, kidney", "setting": "[2]; 0.1 mg/kg oral", "value": "170.08 ± 33.10"},
      {"measurement": "Ngal mRNA expression, kidney", "setting": "[2]; 0.1 mg/kg oral", "value": "25.75 ± 2.80"},
      {"measurement": "Havcr1 mRNA expression, kidney", "setting": "[2]; 1 mg/kg oral, 1 mg/kg", "value": "83.11 ± 16.85"},
      {"measurement": "Ngal mRNA expression, kidney", "setting": "[2]; 1 mg/kg oral, 1 mg/kg", "value": "13.08 ± 2.41"},
      {"measurement": "Il1 mRNA expression, kidney", "setting": "[3]; 0.1 mg/kg oral", "value": "2.07 ± 0.38"},
      {"measurement": "Il6 mRNA expression, kidney", "setting": "[3]; 0.1 mg/kg oral", "value": "6.47 ± 0.53"},
      {"measurement": "Tnf mRNA expression, kidney", "setting": "[3]; 0.1 mg/kg oral", "value": "2.60 ± 0.62"},
      {"measurement": "Il1 mRNA expression, kidney", "setting": "[3]; 1 mg/kg oral, 1 mg/kg", "value": "1.45 ± 0.23"},
      {"measurement": "Il6 mRNA expression, kidney", "setting": "[3]; 1 mg/kg oral, 1 mg/kg", "value": "5.61 ± 2.10"},
      {"measurement": "Tnf mRNA expression, kidney", "setting": "[3]; 1 mg/kg oral, 1 mg/kg", "value": "2.42 ± 0.35"},
      {"measurement": "Havcr1 mRNA expression, kidney", "setting": "[4]; 0.1 mg/kg oral", "value": "11.90 ± 4.52"},
      {"measurement": "Ngal mRNA expression, kidney", "setting": "[4]; 0.1 mg/kg oral", "value": "35.77 ± 7.67"},
      {"measurement": "Havcr1 mRNA expression, kidney", "setting": "[4]; 1 mg/kg oral, 1 mg/kg", "value": "7.25 ± 0.80"},
      {"measurement": "Ngal mRNA expression, kidney", "setting": "[4]; 1 mg/kg oral, 1 mg/kg", "value": "19.42 ± 1.55"},
      {"measurement": "Il1 mRNA expression, kidney", "setting": "[5]; 0.1 mg/kg oral", "value": "5.32 ± 0.56"},
      {"measurement": "Il6 mRNA expression, kidney", "setting": "[5]; 0.1 mg/kg oral", "value": "14.31 ± 6.01"},
      {"measurement": "Tnf mRNA expression, kidney", "setting": "[5]; 0.1 mg/kg oral", "value": "7.10 ± 1.93"},
      {"measurement": "Il1 mRNA expression, kidney", "setting": "[5]; 1 mg/kg oral, 1 mg/kg", "value": "3.55 ± 0.50"},
      {"measurement": "Il6 mRNA expression, kidney", "setting": "[5]; 1 mg/kg oral, 1 mg/kg", "value": "5.61 ± 2.10"},
      {"measurement": "Tnf mRNA expression, kidney", "setting": "[5]; 1 mg/kg oral, 1 mg/kg", "value": "7.53 ± 0.68"},
      {"measurement": "Col1a1 mRNA expression, kidney", "setting": "[6]; 0.1 mg/kg oral", "value": "11.79 ± 1.18"},
      {"measurement": "Tgfb1 mRNA expression, kidney", "setting": "[6]; 0.1 mg/kg oral", "value": "1.76 ± 0.05"},
      {"measurement": "α-Sma mRNA expression, kidney", "setting": "[6]; 0.1 mg/kg oral", "value": "2.02 ± 0.39"},
      {"measurement": "Col1a1 mRNA expression, kidney", "setting": "[6]; 1 mg/kg oral, 1 mg/kg", "value": "8.27 ± 1.15"},
      {"measurement": "Tgfb1 mRNA expression, kidney", "setting": "[6]; 1 mg/kg oral, 1 mg/kg", "value": "1.53 ± 0.14"},
      {"measurement": "α-Sma mRNA expression, kidney", "setting": "[6]; 1 mg/kg oral, 1 mg/kg", "value": "1.39 ± 0.04"}
    ]},
    {"smiles": "CC1=C2CC[C@@](C)(OC(=O)N3CCCCC3)[C@@H]2[C@H]2OC(=O)[C@@H](CN(C)C)[C@@H]2CC1", "note": "[Compound 102]", "values": [
      {"measurement": "degraded at 1 h", "setting": "[1]; hepes buffer, pH 7.4, HEPES pH 7.4, 37 °C, 1 h, read-out: Release rate (conversion to Compound 83)", "value": 6.8, "unit": "%"},
      {"measurement": "degraded at 2 h", "setting": "[1]; hepes buffer, pH 7.4, HEPES pH 7.4, 37 °C, 2 h, read-out: Release rate (conversion to Compound 83)", "value": 14.6, "unit": "%"},
      {"measurement": "degraded at 4 h", "setting": "[1]; hepes buffer, pH 7.4, HEPES pH 7.4, 37 °C, 4 h, read-out: Release rate (conversion to Compound 83)", "value": 24.8, "unit": "%"},
      {"measurement": "degraded at 8 h", "setting": "[1]; hepes buffer, pH 7.4, HEPES pH 7.4, 37 °C, 8 h, read-out: Release rate (conversion to Compound 83)", "value": 43, "unit": "%"},
      {"measurement": "degraded at 12 h", "setting": "[1]; hepes buffer, pH 7.4, HEPES pH 7.4, 37 °C, 12 h, read-out: Release rate (conversion to Compound 83)", "value": 51.8, "unit": "%"},
      {"measurement": "Spleen T cells (%)", "setting": "T cells; 40 μmol/kg/day, oral, 2 weeks, spleen, flow cytometry", "value": "31.69 ± 6.44", "unit": "%"},
      {"measurement": "Tumor T cells (%)", "setting": "T cells; 40 μmol/kg/day, oral, 2 weeks, tumor, flow cytometry", "value": "20.86 ± 4.15", "unit": "%"},
      {"measurement": "proportion of T cells in tumor tissues and spleens", "setting": "T cells; compared with solvent control, result in words", "value": "significantly increased"}
    ]}
  ]
}
